Residue numbers refer to the chain shown, from its start.
Key:
Assay type in all cases: cell-based
5‐HT3AT6'SB receptors = biological target: T1, 5‐HT3AT6'SB receptors (Homo sapiens, UniProt O95264+P46098, T279S); assay: two‐electrode voltage clamp, 5‐HT3AT6'SB mutant receptors in Xenopus oocytes; settings: maximal current amplitude for the test ligand compared to 5‐HT
T1 sequence (P46098 24-478 T279S): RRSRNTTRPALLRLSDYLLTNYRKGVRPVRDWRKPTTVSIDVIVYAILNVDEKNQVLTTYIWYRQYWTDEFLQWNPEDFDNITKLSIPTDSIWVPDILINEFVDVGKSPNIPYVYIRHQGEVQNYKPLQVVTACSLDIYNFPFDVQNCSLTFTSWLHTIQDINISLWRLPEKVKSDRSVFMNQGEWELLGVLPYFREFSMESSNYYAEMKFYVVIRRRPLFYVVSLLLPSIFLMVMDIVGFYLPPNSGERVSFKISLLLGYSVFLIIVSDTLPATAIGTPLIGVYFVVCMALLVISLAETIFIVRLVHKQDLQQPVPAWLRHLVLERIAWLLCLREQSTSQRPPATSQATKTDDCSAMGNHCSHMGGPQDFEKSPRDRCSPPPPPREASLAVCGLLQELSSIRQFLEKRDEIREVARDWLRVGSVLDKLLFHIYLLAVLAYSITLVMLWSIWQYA
T1 sequence (O95264 22-441): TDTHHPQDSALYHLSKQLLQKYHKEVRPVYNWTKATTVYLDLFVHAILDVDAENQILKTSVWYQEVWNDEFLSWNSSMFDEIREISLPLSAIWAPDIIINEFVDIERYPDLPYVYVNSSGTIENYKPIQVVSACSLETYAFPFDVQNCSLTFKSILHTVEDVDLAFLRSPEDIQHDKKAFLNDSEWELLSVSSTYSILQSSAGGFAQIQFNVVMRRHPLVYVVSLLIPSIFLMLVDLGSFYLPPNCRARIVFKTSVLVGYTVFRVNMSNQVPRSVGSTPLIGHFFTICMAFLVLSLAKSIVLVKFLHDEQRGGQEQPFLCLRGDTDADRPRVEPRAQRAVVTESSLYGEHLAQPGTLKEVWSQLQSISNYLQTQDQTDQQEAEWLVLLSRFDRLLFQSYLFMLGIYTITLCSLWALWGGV

5‐HT3A receptors = biological target: T2, 5‐HT3A receptors (Homo sapiens, UniProt P46098); assay: two‐electrode voltage clamp, wild type 5‐HT3A receptors in Xenopus oocytes
T2 sequence (P46098 24-478): T1 sequence (P46098 24-478 T279S) with S256T

5‐HT3AT6'S receptors = biological target: T3, 5‐HT3AT6'S receptors (Homo sapiens, UniProt P46098, T279S); assay: two‐electrode voltage clamp, 5‐HT3AT6'S mutant receptors in Xenopus oocytes; settings: maximal current amplitude for the test ligand compared to 5‐HT
T3 sequence (P46098 24-478 T279S): T1 sequence (P46098 24-478 T279S)

5‐HT3AB receptors = biological target: T4, 5‐HT3AB receptors (Homo sapiens, UniProt O95264+P46098); assay: two‐electrode voltage clamp, wild type 5‐HT3AB receptors in Xenopus oocytes
T4 sequence (P46098 24-478): T1 sequence (P46098 24-478 T279S) with S256T
T4 sequence (O95264 22-441): T1 sequence (O95264 22-441)

With `c1ccc2nc(N3CCNCC3)ccc2c1` [Quipazine] the Rmax (5‐HT3AT6'SB receptors) was 1.2, the agonist response (5‐HT3A receptors; 5‐HT3A) was “too small to accurately determine functional parameters” and the “long‐lived inhibition of subsequent agonist responses” value (5‐HT3A receptors; wild type 5‐HT3A and 5‐HT3AB receptors) was over 20 min. For the same compound, the Rmax (5‐HT3AT6'S receptors) was 0.9 and the agonist response (5‐HT3AB receptors) was “too small to accurately determine functional parameters”.

— paper PMC3834762 (British Journal of Pharmacology, 2013)
